# Test results: US5686424A, “2-oxoethyl derivatives as immunosuppressants” (Miles Inc., priority 1995, dated 1997)
# Biological target: FKBP (Homo sapiens, UniProt P62942)
# Assay: PPIase Inhibition Assay
# Type: biochemical
# Conditions: concentration of inhibitor required for 50% inhibition of enzyme activity; FKBP, substrate Succinyl-Ala-Phe-Pro-Phe-para-nitroanilide; TABLE I
# In short: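 Rates from p-nitroaniline release at 390 nm over 90 sec, fitted first-order, were converted to % activity remaining relative to uncatalyzed and uninhibited rates, with IC50 from linear regression of V-/V+ against inhibitor level. FKBP acted on Suc-Ala-Phe-Pro-Phe-pNA with excess chymotrypsin, HEPES pH 7.8, cold buffer.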
# Chain of FKBP (P62942 whole entry): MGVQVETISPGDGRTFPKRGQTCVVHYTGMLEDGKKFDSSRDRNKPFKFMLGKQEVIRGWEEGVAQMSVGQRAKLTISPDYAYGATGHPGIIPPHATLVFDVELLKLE
row,IC50 [µM],Structure (SMILES)
1,0.6,"CC[C@H](C)[C@H](NC(=O)[C@@H]1CCCN1CC(=O)O[C@H](c1ccccc1)C(C)C)C(=O)NCc1ccccc1 [Example 92, L-Isoleucine, N-[1-(2-(2-Methyl-1-(S)-Phenyl-1-Propoxy)-2-Oxoethyl)-L-Prolyl] Benzylamide]"
2,1.2,"CC[C@H](C)[C@H](NC(=O)[C@@H]1CCCN1CC(=O)O[C@@H](c1ccccc1)C(C)C)C(=O)NCc1ccccc1 [Example 93, L-Isoleucine, N-[1-(2-(2-Methyl-1-(R)-Phenyl-1-Propoxy)-2-Oxoethyl)-L-Prolyl] Benzylamide]"

# More lines, now with the values behind:
row,Structure (SMILES),IC50 [µM]
1,"CC[C@H](C)[C@H](NC(=O)[C@@H]1CCCN1CC(=O)NC12CC3CC(CC(C3)C1)C2)C(=O)NCc1ccccc1 [Example 39, L-Isoleucine, N-[1-(2-Aminoadamant-1-yl-2-oxoethyl)-L-Prolyl] Benzylamide]",15
2,"CC[C@H](C)[C@H](NC(=O)[C@@H]1CCCN1CC(=O)C1CC2CC(C1C)C2(C)C)C(=O)NCc1ccccc1 (stereo partly drawn) [Example 41, L-Isoleucine, N-[1-[2-(2,6,6-Trimethyl-Bicyclo[3.1.1]hept-3-yl)-2-Oxoethyl]-L-Prolyl] Benzylamide]",< 5
3,"O=C(NCc1ccccc1)[C@H](COCc1ccccc1)NC(=O)[C@@H]1CCCN1CC(=O)C12CC3CC(CC(C3)C1)C2 [Example 62, L-Serine-(O-Benzyl Ether), N-[1-(2-Adamantan-1-yl-2-Oxoethyl)-L-Prolyl] Benzylamide]",1.3
4,"O=C(CC(NC(=O)[C@@H]1CCCN1CC(=O)C12CC3CC(CC(C3)C1)C2)c1ccccc1)NCc1ccccc1 (stereo partly drawn) [Example 63, L-β-Phenylalanine, N-[1-(2-Adamantan-1-yl-2-Oxoethyl)-L-Prolyl] Benzylamide]",0.3
5,"CC[C@H](C)[C@H](NC(=O)[C@@H]1CCCN1CC(=O)C12CC3CC(CC(C3)C1)C2)C(=O)N[C@H](C)c1ccccc1 [Example 66, L-Isoleucine, N-[1-(2-Adamantan-1-yl-2-Oxoethyl)-L-Prolyl] alpha-(R)-methylbenzylamide]",0.1
6,"CC[C@H](C)[C@H](NC(=O)[C@@H]1CCCN1CC(=O)NC1C2CC3CC(C2)CC1C3)C(=O)NCc1ccccc1 (stereo partly drawn) [Example 90, L-Isoleucine, N-[1-(Adamantan-2-ylcarbamoylmethyl)-L-Prolyl] Benzylamide]",< 5
